In patent publication US20230059404A1, “Method for Producing Brown Adipocytes” (Kataoka Corporation, priority 2019, published 2023):

Experiments:
[1] = test system: β-adrenergic receptor signal pathway in brown adipocytes; assay: Heat production capacity: Ucp1 mRNA after isoproterenol treatment of induced brown adipocytes; type: cell-based, human; conditions: 6 hours treatment of cells induced with Example 3 (3 weeks SFBAM + 1 week SFBAMaM); compared with control treated with H2O; FIG. 9
Procedure: To quantify gene expression, total RNAs were extracted from fibroblasts treated with the respective compounds using FastGene (registered trademark) RNA basic kit (manufactured by Nippon Genetics Co., Ltd.). Fibroblasts were cultured in parallel using SFBAM as a control, and the total RNAs were extracted from the brown adipocytes induced with compounds and the control cells. After performing reverse-transcription with ReverTraAce (registered trademark) PCR RT Master Mix with gDNA Remover (manufactured by Toyobo Co., Ltd.), the real-time PCR analysis was performed by Power SYBR Green PCR Master Mix (Thermo Fisher Scientific). Three reactions were carried out per level under the following conditions: 40 cycles of reactions at 95° C. for 10 minutes, at 95° C. for 15 seconds, and at 60° C. for 60 seconds, in order. All results were normalized to the quantity of Tbp mRNA.
Regarding the cells, Ucp1 mRNA was quantified in the case after treatment with isoproterenol (β-adrenergic receptor agonist) for 6 hours and in the case after treatment with H2O, which is the solvent.

human fibroblasts = assay: Direct conversion of human fibroblasts to brown adipocytes in serum-free medium SFBAM, efficiency judged comprehensively; type: cell-based; conditions: conclusion from removal experiments
Procedure: The above human fibroblasts were seeded in 35 mm dishes coated with gelatin (Cat #: 190-15805, manufactured by FUJIFILM Wako Pure Chemical Co.) at 5×10^4, and cultured in DMEM medium (Cat #: 11965092; manufactured by Gibco) supplemented with 10% fetal bovine serum (FBS), 100 U/mL penicillin, 100 μg/mL streptomycin until 80% to 90% confluency at 37° C., 5% CO2.
Hereinafter, this is referred to as serum-free brown adipocyte-inducing medium “SFBAM”.
After the human fibroblasts reached 80% to 90% confluency, the dish medium was replaced with the above SFBAM and the human fibroblasts were cultured in SFBAM for 3 weeks. The medium was changed every 3 days.
The more the number of + marks, the higher the conversion efficiency. […] The mark − indicates no conversion to brown adipocytes.

Row | Structure (SMILES) | Ucp1 mRNA increase after treatment [1] | conversion efficiency attributed to the single compound (human fibroblasts)
1 | CC(C)NCC(O)c1ccc(O)c(O)c1 (stereo not drawn) [isoproterenol, Isoproterenol] | up to 3.1 fold | 
2 | C=C[C@@]1(C)CC(=O)[C@]2(O)[C@@]3(C)[C@@H](O)CCC(C)(C)[C@@H]3[C@H](O)[C@H](OC(C)=O)[C@@]2(C)O1 [forskolin, Forskolin] |  | followed by a high conversion efficiency
3 | CN(CCOc1ccc(CC2SC(=O)NC2=O)cc1)c1ccccn1 (stereo not drawn) [rosiglitazone, Rosiglitazone] |  | high conversion efficiency
